B1: Fatty-acid amide hydrolase 1 (Homo sapiens), O00519 (protein)
chain: MVQYELWAALPGASGVALACCFVAAAVALRWSGRRTARGAVVRARQRQRAGLENMDRAAQRFRLQNPDLDSEALLALPLPQLVQKLHSRELAPEAVLFTYVGKAWEVNKGTNCVTSYLADCETQLSQAPRQGLLYGVPVSLKECFTYKGQDSTLGLSLNEGVPAECDSVVVHVLKLQGAVPFVHTNVPQSMFSYDCSNPLFGQTVNPWKSSKSPGGSSGGEGALIGSGGSPLGLGTDIGGSIRFPSSFCGICGLKPTGNRLSKSGLKGCVYGQEAVRLSVGPMARDVESLALCLRALLCEDMFRLDPTVPPLPFREEVYTSSQPLRVGYYETDNYTMPSPAMRRAVLETKQSLEAAGHTLVPFLPSNIPHALETLSTGGLFSDGGHTFLQNFKGDFVDPCLGDLVSILKLPQWLKGLLAFLVKPLLPRLSAFLSNMKSRSAGKLWELQHEIEVYRKTVIAQWRALDLDVVLTPMLAPALDLNAPGRATGAVSYTMLYNCLDFPAGVVPVTTVTAEDEAQMEHYRGYFGDIWDKMLQKGMKKSVGLPVAVQCVALPWQEELCLRFMREVERLMTPEKQSS

What was measured:
[1] = molecular target: T1, Fatty-acid amide hydrolase 1 (Rattus norvegicus, UniProt P97612); experiment: Inhibition of rat FAAH
T1 sequence (P97612 whole entry): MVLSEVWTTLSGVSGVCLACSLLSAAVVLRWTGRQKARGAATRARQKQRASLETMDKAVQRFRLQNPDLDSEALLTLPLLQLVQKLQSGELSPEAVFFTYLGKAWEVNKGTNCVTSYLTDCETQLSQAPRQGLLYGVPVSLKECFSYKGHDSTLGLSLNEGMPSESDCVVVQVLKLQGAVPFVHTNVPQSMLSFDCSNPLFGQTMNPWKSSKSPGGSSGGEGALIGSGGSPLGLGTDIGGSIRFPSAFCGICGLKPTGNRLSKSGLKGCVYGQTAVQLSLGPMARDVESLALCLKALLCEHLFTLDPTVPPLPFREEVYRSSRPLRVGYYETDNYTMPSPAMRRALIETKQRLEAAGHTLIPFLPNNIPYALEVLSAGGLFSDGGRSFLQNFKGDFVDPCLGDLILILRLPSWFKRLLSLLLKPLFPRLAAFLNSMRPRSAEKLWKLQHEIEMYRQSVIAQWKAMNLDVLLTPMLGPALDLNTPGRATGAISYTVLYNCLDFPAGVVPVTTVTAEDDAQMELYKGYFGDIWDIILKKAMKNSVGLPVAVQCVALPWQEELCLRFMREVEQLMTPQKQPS

[2] = molecular target: T1, Fatty-acid amide hydrolase 1
[3] = organism: Rattus norvegicus; experiment: Ex vivo inhibition of FAAH activity in rat brain after 16 hrs; type: functional
[4] = substrate: CCCCCCCC/C=C\CCCCCCCC(N)=O; experiment: Activity of FAAH

Row | Molecule | IC50 [1] | also measured
1 | CN(C)C(=O)n1nnnc1Cc1ccc(-c2ccccc2)cc1 | 0.0124 µM | –
2 | CC(C)c1cccc(C(C)C)c1O [PROPOFOL] | 14 µM | –
3 | CCCC(C)C1(CC)C(=O)NC(=S)NC1=O (stereo unspecified) [THIOPENTAL] | 2000 µM | –
4 | O=C1O/C(=C/Br)CCC1c1cccc2ccccc12 (stereo unspecified) [BROMOENOL LACTONE] | – | IC50 [2]: 0.8 µM
5 | NC(=O)c1cccc(-c2cccc(OC(=O)NC3CCCCC3)c2)c1 [URB-597] | – | inhibition (INH) [3]: 90%
6 | B1 | – | Km [4]: 5 µM

— ChEMBL document CHEMBL1140205, “Discovery and development of fatty acid amide hydrolase (FAAH) inhibitors” (J Med Chem, 2008)
